Test results from patent US10682371B2, “Small molecule conjugates specifically activated in tumor microenvironment for targeting and use thereof” (priority 2014, dated 2020).
Like-named read-outs stand apart in the source and are kept apart here.

Assays:
[1] = system: tumor CD8+ T cells; format: in vivo, C57 mice; settings: CD8 positive cells in CD45 positive cells of tumor, flow cytometry, drugs 13.2 μmol/kg
Protocol: (§1) 4) Analysis on tumor CD8+ T cells. The tumor tissue was homogenated and individual cells in the tumor were filtered, separated and washed by buffer twice, then cultivated with the leucocyte common antigen CD45-PE and CD8-FITC marked antibodies for 1 hour at ambient temperature. The cells were washed by phosphate buffer containing 1% fetal bovine serum twice and then analyzed for the ratio of the T lymphocyte antigen (CD8) positive cells in the leucocyte common antigen (CD45) positive cells by flow cytometry.
as §1, with “CD45-PE and T-lymphocyte antigen CD8-FITC marked” for “CD45-PE and CD8-FITC marked”, “flow cytometry. Increasement of the ratio indicates increased T lymphocyte cells and thus the animal immunity against the tumor was improved.” for “flow cytometry.”
as §1, with “cytometry. Increasement of the ratio indicates increased T lymphocyte cells and thus the animal immunity against the tumor was improved.” for “cytometry.”

[2] = system: 4T1 cells; assay: BALB/C mice model for tumor metastasis (4T1, lung metastases); format: in vivo; settings: BALB/C mice, 4T1, lung metastases day 27, IV every three days for 4 times
Protocol: 1) 4T1 cells were purchased from American type culture collection (ATCC) and identified according the specification provided by ATCC. Cells were cultivated in DMEM culture solution containing 10% fetal bovine serum at 37° C. and 5% CO2. The cells were passaged for every three days and cells within the 15th passage were used.
2) Production of tumor metastasis. 10^6 […] were subcutaneously injected to the back of the BALB/C mice. Mice were randomly grouped after the tumor grew to about 1.5 cm. The subcutaneous tumor was removed by surgery and drug treatment began. Mice were killed after anesthesia on day 27. The whole lung was taken out and put into Bouin's solution for staining. The number of the tumor metastasized to lung was counted with anatomical microscope.
(§2) The control group was administered by physiological saline. Drugs were administered once for every three days for 4 times.
as §2
According to the clinical application of B1, B2, B3 and B4, drugs were intravenously injected (IV). […] The control group was administered by physiological saline. Drugs were administered once for every three days for 4 times.
According to the clinical application of D1, D2, D3 and D4, drugs were intravenously injected (IV). […] The control group was administered by physiological saline. Drugs were administered once for every three days for 4 times.

[3] = system: Human prostate cancer PC-3 cells; assay: Tumor treatment in nude mice, PC-3 model (Example 51); format: in vivo; settings: Table 48, nude mice, PC-3, IV once weekly for four weeks, D1-D4 25 mg/kg, Docetaxel […]
Protocol: (§3) 1) Human prostate cancer PC-3 cells were purchased from American type culture collection (ATCC) and identified according the specification provided by ATCC. Cells were cultivated in DMEM culture solution containing 10% fetal bovine serum at 37° C. and 5% CO2. The cells were passaged for every three days and cells within the 15th passage were used.
2) Production of tumor. 5×10^6PC-3 cells were subcutaneously injected to the back of the nude mice. Mice were randomly grouped after the tumor reached at least 100 mm^3. Then treatment began and the day on which the treatment began was day 1.
According to the clinical application of D1, D2, D3 and D4, drugs were intravenously injected (IV). […]. The control group was administered by physiological saline. Drugs were administered once weekly for four weeks.

[4] = system: Human prostate cancer PC-3 cells / Panc-1 cells; assay: Tumor treatment in nude mice (PC-3 cells purchased, Panc-1 cells injected; Examples 22, 32, 42); format: in vivo; settings: Table 38, nude mice, IV once weekly for four weeks, B1-B4 25 mg/kg, Docetaxel […]
Protocol: as §3
2) Production of tumor. 5×10^6Panc-1 cells were subcutaneously injected to the back of the nude mice. Mice were randomly grouped after the tumor reached at least 100 mm^3. Then treatment began and the day on which the treatment began was day 1.
The control group was administered by physiological saline. Drugs were administered once weekly for four weeks.
According to the clinical application of B1, B2, B3 and B4, drugs were intravenously injected (IV). […] The control group was administered by physiological saline. Drugs were administered once weekly for four weeks.

[5] = system: D121 lung tumor cells; format: in vivo, C57 mice; settings: immunized C57 mice, D121, drugs 13.2 μmol/kg, weekly for 4 weeks, Day 18
Protocol: 1) D121 lung tumor cells were purchased from ATCC. Cells were cultivated in DMEM culture solution containing 10% fetal bovine serum at 37° C. and 5% CO2. The cells were passaged for every three days and cells within the 15th passage were used.
2) Tumor immunization. 5×10^5 D121 lung cancer cells (purchased from ATCC) which were killed by irradiation were intraperitoneally injected to mice. The mice were injected for 3 times, once every two weeks. After immunization, mice were injected with tumor cells and the drugs were administered weekly for 4 weeks.
3) Production of tumor. At day 32, 10^6 live lung tumor cells were subcutaneously injected to the back of the C57 mice immunized by tumor. Treatment began when the tumor grew to 0.3-0.4 cm.
2) Tumor immunization. 5×10^5 D121 lung cancer cells (purchased from ATCC) which were killed by irradiation were intraperitoneally injected to mice. The mice were injected for 3 times, once every two weeks. After immunization, mice were injected with tumor cells and the drugs were administered weekly for 4 weeks. In table 16 below the immune group was immuned with D121 lung tumor cells and the group without dead D121 lung tumor cells was injected with physiological saline as controls.
3) Production of tumor. After immunization (4 weeks later), 10^6 live lung tumor cells were subcutaneously injected to the back of the C57 mice immunized by tumor. Treatment began when the tumor grew to 0.3-0.4 cm. Tumor size (mm^3) were noted and tumor inhibition rates were calculated.
2) Tumor immunization. 5×10^5 D121 lung cancer cells (purchased from ATCC) which were killed by irradiation were intraperitoneally injected to mice. The mice were injected for 3 times, once every two weeks. After immunization, mice were injected with tumor cells and the drugs were administered weekly for 4 weeks. In the table below the immune group was immuned with D121 lung tumor cells and the group without dead D121 lung tumor cells was injected with physiological saline as controls.
3) Production of tumor. At day 32, 10^6 live D121 lung tumor cells were subcutaneously injected to the back of the C57 mice immunized by tumor. Treatment began when the tumor grew to 0.3-0.4 cm.
1) D121 lung tumor cells were purposed from ATCC. Cells were cultivated in DMEM culture solution containing 10% fetal bovine serum at 37° C. and 5% CO2. The cells were passaged for every three days and cells within the 15th passage were used.

[6] = Table 39, PDL1-antibody 5 μg/kg
[7] = Table 49, PDL1 antibody 5 μg/kg
[8] = Table 40, B1-B4 17.6 μmol/kg, Docetaxel 3 μmol/kg
[9] = Table 50, D1-D4 25 mg/kg, Docetaxel 4.2 mg/kg

For Docetaxel [reference compound], the “CD8: CD45 (%)” value [1, 6] was 5.4%, the “CD8: CD45 (%)” value [1, 7] was 6.9% and the “Inhibitory rate on metastasis” value [2, 8] was 32.5. The “Number of metastasized tumor” value [2, 8] was 85 ± 17, the “Inhibitory rate on metastasis” value [2, 9] was 89.7 and the “Number of metastasized tumor” value [2, 9] was 156 ± 24. The “Size of tumor (mm^3) Day 10” value ([3]; Day 10) was 168.66 ± 79.43 mm^3, the “inhibitory rate on tumor Day 10” value ([3]; Day 10) was 51.3 and the “Size of tumor (mm^3) Day 24” value ([3]; Day 24) was 313.75 ± 157.42 mm^3. The “inhibitory rate on tumor Day 24” value ([3]; Day 24) was 57.3, the “Size of tumor (mm^3) Day 10” value ([4]; Day 10) was 254.75 ± 146.55 mm^3 and the “inhibitory rate on tumor Day 10” value ([4]; Day 10) was 11.1. The “Size of tumor (mm^3) Day 24” value ([4]; Day 24) was 263.65 ± 184.67 mm^3, the “inhibitory rate on tumor Day 24” value ([4]; Day 24) was 30.7 and the “Size of tumor (mm^3) Day 18” value [5, 6] was 1242.30 ± 359.48 mm^3. The “inhibitory rate on tumor % Day 18” value [5, 6] was 23.33%, the “Size of tumor (mm^3) Day 18” value [5, 7] was 1268.64 mm^3 and the “inhibitory rate on tumor % Day 18” value [5, 7] was 11.0%.
